Data reported in patent publication US7655392B2, “Quenching methods for red blood cell inactivation process” (priority 2004, dated 2010).
“And” between values parts separate entries of the source, which are not always exact repeats. Equal entries are not always repeated.

What was measured:
[1] = test system: Staphylococcus epidermidis; assay: Inactivation of Staphylococcus epidermidis in RBC (colony count); details: for Change in Log titer: initial RBC titer 6.5
Method: Whole blood (Blood Source, Sacramento, Calif.) was used to prepare a red blood cell (RBC) composition by centrifuging to provide packed RBC (34 mL of approximately 90% hematocrit), then adding 17 mL Erythrosol to a hematocrit of approximately 60%. Erythrosol is a red blood cell additive (Baxter Healthcare Corp., Deerfield, Ill.) that may be prepared by combining sodium citrate dihydrate (7.82 g); sodium acid phosphate dihydrate (0.73 g); sodium phosphate dihydrate (3.03 g); adenine (0.22 g); mannitol (7.74 g); and glucose (9 g) in 1 liter of distilled water. The bacterial preparation was then added ( 1/100th of the total volume) to the RBC/Erythrosol to provide contaminated RBC. The contaminated RBC was divided into several samples and treated according to Table 2, where PIC-1 is β-alanine, N-(acridin-9-yl), 2-[bis(2-chloroethyl)amino]ethyl ester. The PIC-1 and glutathione (Aldrich, St. Louis, Mo.) were dissolved in a solution of 8% dextrose monohydrate at about 15× the desired concentration in the final red blood cell composition when added together, or 30× when added separately. […] For separate addition using 20 mM neutralized glutathione, PIC-1 is prepared by dissolving 7.6 mg in 2.5 mL of 8% dextrose, glutathione is prepared by dissolving 460 mg in 1.9 mL of 8% dextrose and mixing with 0.6 mL of 5N NaOH, then adding 165 μL of each solution to 4.67 mL RBC in the appropriate order. Following treatment, the samples were incubated for 2 hours, and 100 μL of each was serially diluted and plated on LB plates. These were incubated overnight at 37° C. in order to assess bacterial growth. The bacterial titer was determined by counting colonies on the plates and based on the dilution of the plate, the titer was determined. For example, with 10-fold serial dilutions, 30 colonies counted on the 5th dilution of the original solution, where 0.1 mL are plated, would indicate an initial titer of (30×10^5)/0.1=3×10^7, or 7.47 log. […] Note that for most samples in Table 2A the PIC-1 and glutathione were formulated together. […] The study was repeated with sequential addition of the two components, as indicated in Table 2B (time delay of 0 indicates they were added in the same solution).
Additional studies were done using S. epidermidis, where the overnight culture was used without dilution. […] PIC-1 is at 0.2 mM in all samples.
For these samples, the NaOH stock was prepared at 10N and appropriate volumes of the various components were used following the procedures above. Standard conditions and/or 20 mM neutralized glutathione (GSH) were run for comparison.

[2] = pH of quencher stock and of RBC mixture; format: physicochemical; details: for pH of stock quencher: room temperature
Method: The effect of various quenching conditions on the pH of a red blood cell composition was determined for various treatment conditions. The quencher solutions were prepared at a concentration of 600 mM in 8% dextrose monohydrate. […] Glutathione was assessed at 2 mM (acidic) or 20 mM (2 eq. of base). […] The pH of the quencher solution, either unmodified or neutralized, was measured using a standard Epoxy Calomel electrode (Beckman Instruments) at room temperature. […] The samples were mixed and the pH at room temperature was measured using the same electrode as described above.
In these, the appropriate amount of 600 mM stock was added, mixed with an appropriate volume of 8% dextrose to provide the same volume addition to each RBC sample where in one study, with varied glutathione concentrations, the pH was measured after adding glutathione and after adding PIC-1. […] Similar samples were also assessed for the inactivation of S. epidermidis. […] For gel card analysis, after incubation, the RBC were washed in BBS and were diluted in BBS to a final hematocrit of 4%. A 25 μL aliquot of each was mixed with 15 μL of rabbit polyclonal anti-acridine sera diluted either 1:4 or 1:100 in BBS and the mixture was incubated at 37° C. for 30 minutes. The cells were subsequently washed with 1.5 mL BBS. After washing was complete, the cells were mixed with goat anti-rabbit Fab′2 fragment anti H+L chains (1:4 dilution in PBS) and incubated at 37° C. for 30 minutes.

[3] = 0.2 mM PIC-1, then 20 mM glutathione+2 eq base after 1 min
[4] = 0.2 mM PIC-1, then 20 mM glutathione+2 eq base after 5 min
[5] = 0.2 mM PIC-1, then 20 mM glutathione+2 eq base after 10 min
[6] = 0.2 mM PIC-1, then 20 mM glutathione+2 eq base after 20 min
[7] = 0.2 mM PIC-1 and 2 mM glutathione, 0 eq base, simultaneous
[8] = 0.2 mM PIC-1 and 20 mM glutathione, 0 eq base, simultaneous
[9] = 20 mM glutathione+2 eq base, then 0.2 mM PIC-1 after 1 min
[10] = 20 mM glutathione+2 eq base, then 0.2 mM PIC-1 after 10 min
[11] = Table 5C: 0.2 mM PIC-1+2 mM GSH, 0 eq base, no delay
[12] = Table 5C: 5 mM Cys+1 eq base, then 0.2 mM PIC-1 after 10 min
[13] = Table 5C: 10 mM Cys+1 eq base, then 0.2 mM PIC-1 after 10 min
[14] = Table 5C: 20 mM Cys+1 eq base, then 0.2 mM PIC-1 after 10 min
[15] = Table 5C: 20 mM GSH+2 eq base, then 0.2 mM PIC-1 after 10 min
[16] = Table 5C: […] Cys+1 eq base, then 0.2 mM PIC-1 after 10 min

Question: Which “Log S. epidermidis reduction” value [1, 3] does the source give for `O=C(CCNc1c2ccccc2nc2ccccc12)OCCN(CCCl)CCCl` [PIC-1] here?
Answer: 6.70 Log

Question: And the “Log S. epidermidis titer” value [1, 3]?
Answer: −0.08 Log

Question: And the “Log S. epidermidis reduction” value [1, 4]?
Answer: 6.70 Log

Question: And the “Log S. epidermidis titer” value [1, 4]?
Answer: −0.08 Log

Question: What about the “Log S. epidermidis reduction” value [1, 5] of the same compound?
Answer: 6.70 Log

Question: What about the “Log S. epidermidis titer” value [1, 5] of the same compound?
Answer: −0.08 Log

Question: What about the “Log S. epidermidis reduction” value [1, 6] of the same compound?
Answer: 6.70 Log

Question: What about the “Log S. epidermidis titer” value [1, 6] of the same compound?
Answer: −0.08 Log

Question: What about the “Log S. epidermidis reduction” value [1, 7] of the same compound?
Answer: 6.70 Log

Question: And the “Log S. epidermidis titer” value [1, 7]?
Answer: −0.08 Log

Question: And the “Log S. epidermidis reduction” value [1, 8]?
Answer: 0.22 Log

Question: And the “Log S. epidermidis titer” value [1, 8]?
Answer: 6.40 Log

Question: And the “Log S. epidermidis reduction” value [1, 9]?
Answer: 6.10 Log

Question: What about the “Log S. epidermidis titer” value [1, 9] of the same compound?
Answer: 0.52 Log

Question: What about the “Log S. epidermidis reduction” value [1, 10] of the same compound?
Answer: 5.92 Log

Question: And the “Log S. epidermidis titer” value [1, 10]?
Answer: 0.70 Log

Question: And the “inactivation of S. epidermidis” value ([1]; 20 mM neutralized glutathione as quencher, 0.2 mM PIC-1)?
Answer: not significantly reduced

Question: What about the “Log S. epidermidis reduction” value [1, 11] of the same compound?
Answer: 7.2 Log

Question: What about the “Log S. epidermidis titer” value [1, 11] of the same compound?
Answer: 0 Log

Question: And the “Log S. epidermidis reduction” value [1, 12]?
Answer: 7.2 Log

Question: And the “Log S. epidermidis titer” value [1, 12]?
Answer: 0 Log

Question: And the “Log S. epidermidis reduction” value [1, 13]?
Answer: 4.9 Log

Question: And the “Log S. epidermidis titer” value [1, 13]?
Answer: 2.3 Log

Question: What about the “Log S. epidermidis reduction” value [1, 14] of the same compound?
Answer: 4.0 Log

Question: What about the “Log S. epidermidis titer” value [1, 14] of the same compound?
Answer: 3.2 Log

Question: What about the “Log S. epidermidis reduction” value [1, 15] of the same compound?
Answer: 7.2 Log

Question: And the “Log S. epidermidis titer” value [1, 15]?
Answer: 0 Log

Question: What about the “Log S. epidermidis reduction” value [1, 16] of the same compound?
Answer: 7.2 Log

Question: What about the “Log S. epidermidis titer” value [1, 16] of the same compound?
Answer: 0 Log

Question: What about the “Change in Log titer” value ([1]; 2 mM GSH, 1 eq. base, 0.2 mM PIC-1) of the same compound?
Answer: 6.5 Log

Question: What about the “Change in Log titer” value ([1]; 2 mM GSH, 2 eq. base, 0.2 mM PIC-1) of the same compound?
Answer: 6.5 Log

Question: What about the “Change in Log titer” value ([1]; 2 mM GSH, no added base, 0.2 mM PIC-1) of the same compound?
Answer: 6.5 Log

Question: And the “Change in Log titer” value ([1]; 5 mM GSH, 1 eq. base, 0.2 mM PIC-1)?
Answer: 6.5 Log

Question: And the “Change in Log titer” value ([1]; 5 mM GSH, 2 eq. base, 0.2 mM PIC-1)?
Answer: 6.5 Log

Question: And the “Change in Log titer” value ([1]; 5 mM GSH, no added base, 0.2 mM PIC-1)?
Answer: 6.5 Log

Question: What about the “Change in Log titer” value ([1]; 10 mM GSH, 1 eq. base, 0.2 mM PIC-1) of the same compound?
Answer: 6.5 Log

Question: What about the “Change in Log titer” value ([1]; 10 mM GSH, 2 eq. base, 0.2 mM PIC-1) of the same compound?
Answer: 6.5 Log

Question: What about the “Change in Log titer” value ([1]; 10 mM GSH, no added base, 0.2 mM PIC-1) of the same compound?
Answer: 2.9 Log

Question: And the “Change in Log titer” value ([1]; 20 mM GSH, 1 eq. base, 0.2 mM PIC-1)?
Answer: 6.5 Log

Question: What about the “Change in Log titer” value ([1]; 20 mM GSH, 2 eq. base, 0.2 mM PIC-1) of the same compound?
Answer: 6.5 Log

Question: What about the “Change in Log titer” value ([1]; 20 mM GSH, no added base, 0.2 mM PIC-1) of the same compound?
Answer: 2.5 Log

Question: What does the source list for `N[C@@H](CCC(=O)N[C@@H](CS)C(=O)NCC(=O)O)C(=O)O` [glutathione, γ-L-glutamyl-L-cysteinyl-glycine]?
Answer: pH of stock quencher ([2]; 600 mM in 8% dextrose + 1 eq. base): 6.1; pH of stock quencher ([2]; 600 mM in 8% dextrose + 2 eq. base): 9.5 and 9.2; pH of stock quencher ([2]; 600 mM in 8% dextrose, no base added): 2.82 and 3.0; pH of mixture Post quencher ([2]; RBC + 2 mM acidic glutathione): 6.7; pH of mixture Final ([2]; RBC + 2 mM acidic glutathione + 0.2 mM PIC-1): 6.7; pH of mixture Post quencher ([2]; RBC + 2 mM glutathione + 1 eq. base): 6.8; pH of mixture Final ([2]; RBC + 2 mM glutathione + 1 eq. base + 0.2 mM PIC-1): 6.8; pH of mixture Post quencher ([2]; RBC + 2 mM glutathione + 2 eq. base): 6.8; pH of mixture Final ([2]; RBC + 2 mM glutathione + 2 eq. base + 0.2 mM PIC-1): 6.8; pH of mixture Post quencher ([2]; RBC + 5 mM acidic glutathione): 6.6; pH of mixture Final ([2]; RBC + 5 mM acidic glutathione + 0.2 mM PIC-1): 6.6; pH of mixture Post quencher ([2]; RBC + 5 mM glutathione + 1 eq. base): 6.7; pH of mixture Final ([2]; RBC + 5 mM glutathione + 1 eq. base + 0.2 mM PIC-1): 6.7; pH of mixture Post quencher ([2]; RBC + 5 mM glutathione + 2 eq. base): 6.9; pH of mixture Final ([2]; RBC + 5 mM glutathione + 2 eq. base + 0.2 mM PIC-1): 6.9; pH of mixture Post quencher ([2]; RBC + 10 mM acidic glutathione): 6.4; pH of mixture Final ([2]; RBC + 10 mM acidic glutathione + 0.2 mM PIC-1): 6.4; pH of mixture Post quencher ([2]; RBC + 10 mM glutathione + 1 eq. base): 6.7; pH of mixture Final ([2]; RBC + 10 mM glutathione + 1 eq. base + 0.2 mM PIC-1): 6.7; pH of mixture Post quencher ([2]; RBC + 10 mM glutathione + 2 eq. base): 7.2; pH of mixture Final ([2]; RBC + 10 mM glutathione + 2 eq. base + 0.2 mM PIC-1): 7.0; pH of mixture Post quencher ([2]; RBC + 20 mM acidic glutathione): 6.1; pH of mixture Final ([2]; RBC + 20 mM acidic glutathione + 0.2 mM PIC-1): 6.1; pH of mixture Post quencher ([2]; RBC + 20 mM glutathione + 1 eq. base): 6.7; pH of mixture Final ([2]; RBC + 20 mM glutathione + 1 eq. base + 0.2 mM PIC-1): 6.7; pH of mixture Post quencher ([2]; RBC + 20 mM glutathione + 2 eq. base): 7.4; pH of mixture Final ([2]; RBC + 20 mM glutathione + 2 eq. base + 0.2 mM PIC-1): 7.2; pH of final mixture ([2]; Table 10: RBC + 2 mM acidic quencher + 0.2 mM PIC-1): 6.9; pH of final mixture ([2]; Table 10: RBC + 20 mM quencher + 2 eq. base + 0.2 mM PIC-1): 7.7; pH of solution ([2]; glutathione solution neutralized with 2 equivalents of sodium hydroxide): approximately 9.5; pH of solution ([2]; solution of the protonated glutathione): approximately 3
